In patent US6737383B1, “Herbicidal oxadiazolidines” (priority 1999, dated 2004):

Assays:
field violet = assay: Test E field violet; type: in vivo, Viola arvensis; conditions: Preemergence
crabgrass = assay: Test A crabgrass; type: in vivo, Digitaria spp.; conditions: 0 to 10 scale where 0 is no effect and 10 is complete control
Procedure, shortened: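 Visual injury score, 0 (no effect) to 10 (complete control), vs untreated controls at ~11 d in greenhouse. Pre: soil drench on sandy loam. Post: spray to runoff, 1–2 leaf stage.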

annual bluegrass = assay: Test E annual bluegrass; type: in vivo, Poa annua; conditions: Preemergence
blackgrass = assay: Test E blackgrass; type: in vivo, Alopecurus myosuroides; conditions: Postemergence
Description: (§1) Compounds evaluated in this test were formulated in a non-phytotoxic solvent mixture which included a surfactant and applied to plants that were in the 1- to 4-leaf stage (postemergence application). A mixture of sandy loam soil and greenhouse potting mix in a 60:40 ratio was used for the postemergence test.
(§2) Plantings of these crops and weed species were adjusted to produce plants of appropriate size for the postemergence test. All plant species were grown using normal greenhouse practices. Crop and weed species include annual bluegrass (Poa annua), blackgrass (Alopecurus myosuroides), black nightshade (Solanum nigra), chickweed (Stellaria media), common poppy (Papaver rhoeas), deadnettle (Lamium amplexicaule), downy brome (Bromus tectorum), field violet (Viola arvensis), galium (Galium aparine), green foxtail (Setaria viridis), Italian ryegrass (Lolium multiflorum), jointed goatgrass (Aegilops cylindrica), kochia (Kochia scoparia), lambsquarters (Chenopodium album), littleseed canarygrass (Phalaris minor), rape (Brassica napus), redroot pigweed (Amaranthus retroflexus), Russian thistle (Salsola kali), scentless chamomile (Matricaria inodora), spring barley (Hordeum vulgare), sugar beet (Beta vulgaris), sunflower (Helianthus annuus), ivyleaf speedwell (Veronica hederaefolia), spring wheat (Triticum aestivum), winter wheat (Triticum aestivum), wild buckwheat (Polygonum convolvulus), wild mustard (Sinapis arvensis), wild oat (Avena fatua), windgrass (Apera spica-venti) and winter barley (Hordeum vulgare).
(§3) Treated plants and untreated controls were maintained in a greenhouse for approximately 21 to 28 days, after which all treated plants were compared to untreated controls and visually evaluated. […] A dash response (-) means no test result.

scentless chamomile = assay: Test E scentless chamomile; type: in vivo, Matricaria inodora; conditions: Postemergence
Description: as §1, §2, §3

sunflower = assay: Test E sunflower; type: in vivo, Helianthus annuus; conditions: Preemergence
morningglory = assay: Test A morningglory; type: in vivo, Ipomoea spp.; conditions: 0 to 10 scale where 0 is no effect and 10 is complete control
Description: Seeds of barnyardgrass (Echinochloa crus-galli), crabgrass (Digitaria spp.), morningglory (Ipomoea spp.), and velvetleaf (Abutilon theophrasti) were planted into a sandy loam soil and treated preemergence by soil drench with test chemicals formulated in a non-phytotoxic solvent mixture which includes a surfactant At the same time, these crop and weed species were also treated postemergence sprayed to runoff, with test chemicals formulated in the same manner.
Plants ranged in height from two to eighteen cm and were in the one to two leaf stage for the postemergence treatment. Treated plants and untreated controls were maintained in a greenhouse for approximately eleven days, after which all treated plants were compared to untreated controls and visually evaluated for injury. Plant response ratings, summarized in Table A, are based on a 0 to 10 scale where 0 is no effect and 10 is complete control.

Russian thistle = assay: Test E Russian thistle; type: in vivo, Salsola kali; conditions: Postemergence
Description: […] A mixture of sandy loam soil and greenhouse potting mix in a 60:40 ratio was used for the postemergence test.
as §2, §3

deadnettle = assay: Test E deadnettle; type: in vivo, Lamium amplexicaule; conditions: Postemergence
Description: as §1, §2, §3

chickweed = assay: Test E chickweed; type: in vivo, Stellaria media; conditions: Preemergence
jointed goatgrass = assay: Test E jointed goatgrass; type: in vivo, Aegilops cylindrica; conditions: Postemergence
Procedure, shortened: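 Compound formulated with surfactant in a non-phytotoxic solvent (postemergence: young 1- to 4-leaf plants); held in greenhouse approx. 21–28 days; visual assessment against untreated plants.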

surinam grass = assay: Test C postemergence surinam grass; type: in vivo, Brachiaria decumbens; conditions: 0 to 100 scale, 0 no effect, 100 complete control
Procedure, shortened: (§4)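 Postemergence spray; formulation = non-phytotoxic solvent + surfactant; soil 60:40 sandy loam:greenhouse potting mix; greenhouse, ~14–21 d; visual rating vs untreated, 0–100 (100 = complete control).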

arrowleaf sida = assay: Test C postemergence arrowleaf sida; type: in vivo, Sida rhombifolia; conditions: 0 to 100 scale, 0 no effect, 100 complete control
Procedure, shortened: as §4

fall panicum = assay: Test C postemergence fall panicum; type: in vivo, Panicum dichotomiflorum; conditions: 0 to 100 scale, 0 no effect, 100 complete control
Procedure, shortened: as §4

[1] = Rate 125 g/ha, 0 to 100 scale (0 no effect, 100 complete control)
[2] = Rate 500 g/ha, 0 to 100 scale where 0 is no effect and 100 is complete control
[3] = Rate 250 g/ha, 0 to 100 scale (0 no effect, 100 complete control)
[4] = Rate 500 g/ha, 0 to 100 scale, 0 no effect, 100 complete control
[5] = Rate 250 g/ha, 0 to 100 scale where 0 is no effect and 100 is complete control

CC(C)N(C(=O)n1oc(=O)n(C(C)C)c1=O)c1ccc(Cl)cc1 [Compound 114]
Plant response rating, Field violet (field violet; [1]): 0 | Plant response rating, Field violet (field violet; Rate 250 g/ha, 0 to 100 scale): 0 | Plant response rating, Field violet (field violet; [2]): 10 | Plant response rating, Crabgrass (crabgrass; Postemergence, Rate 1000 g/ha): 7 | Plant response rating, Crabgrass (crabgrass; Pre-emergence, Rate 2000 g/ha): 10 | Plant response rating, Annual bluegras (annual bluegrass; [1]): 50 | Plant response rating, Annual bluegras (annual bluegrass; Rate 250 g/ha, 0 to 100 scale): 50 | Plant response rating, Annual bluegras (annual bluegrass; [2]): 60 | Plant response rating, Blackgrass (blackgrass; Rate 125 g/ha, 0 to 100 scale): 0 | Plant response rating, Blackgrass (blackgrass; [3]): 20 | Plant response rating, Blackgrass (blackgrass; [4]): 65 | Plant response rating, Scentless chamo (scentless chamomile; Rate 125 g/ha, 0 to 100 scale): 0 | Plant response rating, Scentless chamo (scentless chamomile; [3]): 0 | Plant response rating, Scentless chamo (scentless chamomile; [4]): 0 | Plant response rating, Sunflower (sunflower; [1]): 0 | Plant response rating, Sunflower (sunflower; Rate 250 g/ha, 0 to 100 scale): 0 | Plant response rating, Sunflower (sunflower; [2]): 5 | Plant response rating, Morningglory (morningglory; Postemergence, Rate 1000 g/ha): 10 | Plant response rating, Morningglory (morningglory; Pre-emergence, Rate 2000 g/ha): 6 | Plant response rating, Russian thistle (Russian thistle; Rate 125 g/ha, 0 to 100 scale): 0 | Plant response rating, Russian thistle (Russian thistle; [3]): 0 | Plant response rating, Russian thistle (Russian thistle; [4]): 0 | Plant response rating, Deadnettle (deadnettle; Rate 125 g/ha, 0 to 100 scale): 20 | Plant response rating, Deadnettle (deadnettle; [3]): 10 | Plant response rating, Deadnettle (deadnettle; [4]): 70 | Plant response rating, Chickweed (chickweed; [1]): 15 | Plant response rating, Chickweed (chickweed; Rate 250 g/ha, 0 to 100 scale): 50 | Plant response rating, Chickweed (chickweed; [2]): 100 | Plant response rating, Jointed goatgra (jointed goatgrass; Rate 125 g/ha, 0 to 100 scale): 15 | Plant response rating, Jointed goatgra (jointed goatgrass; [3]): 5 | Plant response rating, Jointed goatgra (jointed goatgrass; [4]): 50

CCn1c(=O)on(C(=O)N(c2ccccc2)C(C)C)c1=O [Compound 117]
Plant response rating, Surinam grass (surinam grass; Rate 140 g/ha): 0 | Plant response rating, Surinam grass (surinam grass; Rate 280 g/ha): 0 | Plant response rating, Surinam grass (surinam grass; Rate 560 g/ha): 40 | Plant response rating, Surinam grass (surinam grass; Rate 1120 g/ha): 90 | Plant response rating Arrowleaf sida (arrowleaf sida; Rate 140 g/ha): 0 | Plant response rating Arrowleaf sida (arrowleaf sida; Rate 280 g/ha): 0 | Plant response rating Arrowleaf sida (arrowleaf sida; Rate 560 g/ha): 0 | Plant response rating Arrowleaf sida (arrowleaf sida; Rate 1120 g/ha): 50 | Plant response rating Fall panicum (fall panicum; Rate 140 g/ha): 0 | Plant response rating Fall panicum (fall panicum; Rate 560 g/ha): 40 | Plant response rating Fall panicum (fall panicum; Rate 1120 g/ha): 80

CC(C)N(C(=O)n1oc(=O)n(C(C)C)c1=O)c1ccc(F)cc1 [Compound 131]
Plant response rating, Field violet (field violet; [1]): 20 | Field violet plant response rating (0 to 100 scale) (field violet; Rate 250 g/ha): 20 | Plant response rating, Field violet (field violet; [2]): 40 | Plant response rating, Annual bluegras (annual bluegrass; [1]): 70 | Annual bluegras plant response rating (0 to 100 scale) (annual bluegrass; Rate 250 g/ha): 80 | Plant response rating, Annual bluegras (annual bluegrass; [2]): 100 | Plant response rating, Surinam grass (surinam grass; Rate 140 g/ha): 0 | Plant response rating, Surinam grass (surinam grass; Rate 280 g/ha): 80 | Plant response rating, Surinam grass (surinam grass; Rate 560 g/ha): 85 | Plant response rating, Surinam grass (surinam grass; Rate 1120 g/ha): 90 | Plant response rating, Blackgrass (blackgrass; Rate 62 g/ha, 0 to 100 scale): 85 | Plant response rating, Blackgrass (blackgrass; Rate 125 g/ha, 0 to 100 scale): 20 | Plant response rating, Blackgrass (blackgrass; [4]): 75 | Blackgrass plant response rating (blackgrass; [5]): 60 | Plant response rating, Scentless chamo (scentless chamomile; Rate 62 g/ha, 0 to 100 scale): 55 | Plant response rating, Scentless chamo (scentless chamomile; Rate 125 g/ha, 0 to 100 scale): 0 | Plant response rating, Scentless chamo (scentless chamomile; [4]): 50 | Scentless chamo plant response rating (scentless chamomile; [5]): 20 | Plant response rating, Sunflower (sunflower; [1]): 20 | Sunflower plant response rating (0 to 100 scale) (sunflower; Rate 250 g/ha): 20 | Plant response rating, Sunflower (sunflower; [2]): 20 | Plant response rating Arrowleaf sida (arrowleaf sida; Rate 280 g/ha): 10 | Plant response rating Arrowleaf sida (arrowleaf sida; Rate 560 g/ha): 30 | Plant response rating Arrowleaf sida (arrowleaf sida; Rate 1120 g/ha): 60 | Plant response rating, Russian thistle (Russian thistle; Rate 62 g/ha, 0 to 100 scale): 10 | Plant response rating, Russian thistle (Russian thistle; Rate 125 g/ha, 0 to 100 scale): 0 | Plant response rating, Russian thistle (Russian thistle; [4]): 0 | Russian thistle plant response rating (Russian thistle; [5]): 0 | Plant response rating, Deadnettle (deadnettle; Rate 62 g/ha, 0 to 100 scale): 30 | Plant response rating, Deadnettle (deadnettle; Rate 125 g/ha, 0 to 100 scale): 30 | Plant response rating, Deadnettle (deadnettle; [4]): 50 | Deadnettle plant response rating (deadnettle; [5]): 30 | Plant response rating Fall panicum (fall panicum; Rate 140 g/ha): 0 | Plant response rating Fall panicum (fall panicum; Rate 280 g/ha): 40 | Plant response rating Fall panicum (fall panicum; Rate 560 g/ha): 90 | Plant response rating Fall panicum (fall panicum; Rate 1120 g/ha): 90 | Plant response rating, Chickweed (chickweed; [1]): 100 | Chickweed plant response rating (0 to 100 scale) (chickweed; Rate 250 g/ha): 100 | Plant response rating, Chickweed (chickweed; [2]): 100 | Plant response rating, Jointed goatgra (jointed goatgrass; Rate 62 g/ha, 0 to 100 scale): 30 | Plant response rating, Jointed goatgra (jointed goatgrass; Rate 125 g/ha, 0 to 100 scale): 0 | Plant response rating, Jointed goatgra (jointed goatgrass; [4]): 60 | Jointed goatgra plant response rating (jointed goatgrass; [5]): 0

CC(C)N(C(=O)n1oc(=O)n(N(C)C)c1=O)c1ccccc1 [Compound 225]
Plant response rating, Crabgrass (crabgrass; Postemergence, Rate 1000 g/ha): 9 | Plant response rating, Crabgrass (crabgrass; Pre-emergence, Rate 2000 g/ha): 10 | Plant response rating, Morningglory (morningglory; Postemergence, Rate 1000 g/ha): 10 | Plant response rating, Morningglory (morningglory; Pre-emergence, Rate 2000 g/ha): 8
